According to the supplement of paper PMC11208160:

Test: recombinant UMI read abundance after kanamycin selection (control-corrected) (log10(CPM+1)); higher = more efficient recombination; extreme values may be limits of the assay; sequences stand for … in AGTGCAGAGAAAATCGGCCAGTTTTCTCTGCCTGCAGTCCGCATGCCGTGGGACCCCTTGGGTTCTAACCTGTTGCCTAGATTTATGCAGCGGACTGCCTTTCTCCCAAAGTGATAAACCGG…AGGTTGGTTTCACT; site = the 11-nt donor
Description: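 Pooled E. coli donor-specificity screen for the IS621 bridge recombinase. Each library member carries a reprogrammed 11-nt donor and a full-length LE bridge RNA expressed in cis from the natural promoter, with a paired donor-binding loop (8-nt LDG + 4-nt RDG) and a target-binding loop fixed to T5. It is co-electroporated with a T5 target plasmid; recombinase is induced with 0.07 mM IPTG and recombinants are selected on kanamycin. UMIs are counted as CPM, averaged over two biological replicates and corrected by the unselected control. Molecule = full bridge RNA written as DNA, built from the T5 scaffold: LDG = donor specificity nt 1-8, RDG = reverse complement of nt 8-11.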
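Further: IS621 bridge recombinase in Escherichia coli cells against a fixed T5 target plasmid.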

Sequence | recombinant UMI read abundance (log10)
ACACATCCATGGACCGGTTTTCCCGGTAATCCGTATTTGCC (site ACACATCCTGG) | 1.79
ACACATCCATGGACCGGTTTTCCCGGTAATCCGTATTTGCC (site ACACATCCTGT) | 0
ACACATCCATGGACCGGTTTTCCCGGTAATCCGTATTTGTC (site ACACATCCTGA) | 1.53
ACACATCCATGGACCGGTTTTCCCGGTAATCCGTATTTGTC (site ACACATCCTGC) | 0.011
ACACATCCATGGACCGGTTTTCCCGGTAATCCGTATTTGTC (site ACACATCCTGG) | 0
ACACATCCATGGACCGGTTTTCCCGGTAATCCGTATTTGTC (site ACACATCCTGT) | 0.239
ACACCTGCATGGACCGGTTTTCCCGGTAATCCGTATTTGGG (site ACACCTGCTCC) | 0.734
ACACGAACATGGACCGGTTTTCCCGGTAATCCGTATTTGCC (site ACACGAACTGA) | 1.32
ACACGAACATGGACCGGTTTTCCCGGTAATCCGTATTTGCC (site ACACGAACTGC) | 0
ACACGAACATGGACCGGTTTTCCCGGTAATCCGTATTTGCC (site ACACGAACTGG) | 2.57
ACACGAACATGGACCGGTTTTCCCGGTAATCCGTATTTGCC (site ACACGAACTGT) | 1.59
ACACGAACATGGACCGGTTTTCCCGGTAATCCGTATTTGTT (site ACACGAACTAA) | 2.08
ACACGAACATGGACCGGTTTTCCCGGTAATCCGTATTTGTT (site ACACGAACTCA) | 0.359
ACACGAACATGGACCGGTTTTCCCGGTAATCCGTATTTGTT (site ACACGAACTGA) | 1.96
ACACGAACATGGACCGGTTTTCCCGGTAATCCGTATTTGTT (site ACACGAACTTA) | 1.35
ACACGGACATGGACCGGTTTTCCCGGTAATCCGTATTTGCT (site ACACGGACTAG) | 2.76
ACACGTACATGGACCGGTTTTCCCGGTAATCCGTATTTGGG (site ACACGTACTCC) | 0.42
ACACTATCATGGACCGGTTTTCCCGGTAATCCGTATTTGCG (site ACACTATCTCG) | 2.79
ACACTATCATGGACCGGTTTTCCCGGTAATCCGTATTTGCG (site ACAGTATCTTG) | 0
ACACTCCCATGGACCGGTTTTCCCGGTAATCCGTATTTGCG (site CTGACGACTAC) | 0.0266
ACACTGGCATGGACCGGTTTTCCCGGTAATCCGTATTTGAG (site ACACTGGCTCT) | 1.38
ACAGATCCATGGACCGGTTTTCCCGGTAATCCGTATTTGAC (site ACAAATCCTGT) | 0

Sequence | recombinant UMI read abundance (log10)
ACAGATCCATGGACCGGTTTTCCCGGTAATCCGTATTTGAC (site ACACATCCTGT) | 0
ACAGATCCATGGACCGGTTTTCCCGGTAATCCGTATTTGAC (site ACAGATCCTGT) | 0.651
ACAGATCCATGGACCGGTTTTCCCGGTAATCCGTATTTGAC (site ACATATCCTGT) | 0.985
ACAGCATCATGGACCGGTTTTCCCGGTAATCCGTATTTGCA (site ACAGAATCTTG) | 0.803
ACAGCATCATGGACCGGTTTTCCCGGTAATCCGTATTTGCA (site ACAGCATCTTG) | 2.11
ACAGCATCATGGACCGGTTTTCCCGGTAATCCGTATTTGCA (site ACAGGATCTTG) | 0
ACAGCATCATGGACCGGTTTTCCCGGTAATCCGTATTTGCA (site ACAGTATCTTG) | 1.73
ACAGCTTCATGGACCGGTTTTCCCGGTAATCCGTATTTGGC (site ACAGCTTCTGC) | 3.35
ACAGGACCATGGACCGGTTTTCCCGGTAATCCGTATTTGCA (site ACAGGACCTTG) | 0
ACAGGACCATGGACCGGTTTTCCCGGTAATCCGTATTTGCA (site ACAGTATCTTG) | 1.52
ACAGGATCATGGACCGGTTTTCCCGGTAATCCGTATTTGAA (site ACAGGATCTTT) | 2.93
ACAGGATCATGGACCGGTTTTCCCGGTAATCCGTATTTGAA (site ACAGTATCTTG) | 0
ACAGGTGCATGGACCGGTTTTCCCGGTAATCCGTATTTGAT (site ACAGGTGCTAT) | 2.2
ACAGGTGCATGGACCGGTTTTCCCGGTAATCCGTATTTGAT (site CCAGGTGCTAT) | 2.2
ACAGGTGCATGGACCGGTTTTCCCGGTAATCCGTATTTGAT (site GCAGGTGCTAT) | 0.572
ACAGGTGCATGGACCGGTTTTCCCGGTAATCCGTATTTGAT (site TCAGGTGCTAT) | 1.78
ACAGTAACATGGACCGGTTTTCCCGGTAATCCGTATTTGCA (site ACAGTAACTTG) | 2.83
ACAGTAACATGGACCGGTTTTCCCGGTAATCCGTATTTGCA (site ACAGTACCTTG) | 0
ACAGTAACATGGACCGGTTTTCCCGGTAATCCGTATTTGCA (site ACAGTAGCTTG) | 1.39
ACAGTAACATGGACCGGTTTTCCCGGTAATCCGTATTTGCA (site ACAGTATCTTG) | 1.65
ACAGTAACATGGACCGGTTTTCCCGGTAATCCGTATTTGGA (site ACAGTAACTTC) | 2.19
ACAGTAACATGGACCGGTTTTCCCGGTAATCCGTATTTGGA (site ACAGTATCTTG) | 0

Sequence | recombinant UMI read abundance (log10)
ACAGTATCATGGACCGGTTTTCCCGGTAATCCGTATTTGGA (site ACAGTATCTTA) | 2.36
ACAGTATCATGGACCGGTTTTCCCGGTAATCCGTATTTGGA (site ACAGTATCTTC) | 2.88
ACAGTATCATGGACCGGTTTTCCCGGTAATCCGTATTTGGA (site ACAGTATCTTG) | 2.02
ACAGTATCATGGACCGGTTTTCCCGGTAATCCGTATTTGGA (site ACAGTATCTTT) | 2.61
ACAGTGGCATGGACCGGTTTTCCCGGTAATCCGTATTTGCT (site ACAGTGGCTAG) | 2.32
ACAGTTCCATGGACCGGTTTTCCCGGTAATCCGTATTTGAA (site ACAGTTCCTTT) | 1.36
ACAGTTTCATGGACCGGTTTTCCCGGTAATCCGTATTTGTA (site ACAGTATCTTG) | 1.19
ACAGTTTCATGGACCGGTTTTCCCGGTAATCCGTATTTGTA (site ACAGTTTCTTA) | 2.49
ACATAGACATGGACCGGTTTTCCCGGTAATCCGTATTTGGG (site ACATAGACTCC) | 0.469
ACATAGACATGGACCGGTTTTCCCGGTAATCCGTATTTGGG (site ACCTAGACTCC) | 0.0175
ACATAGACATGGACCGGTTTTCCCGGTAATCCGTATTTGGG (site ACGTAGACTCC) | 0.00831
ACATAGACATGGACCGGTTTTCCCGGTAATCCGTATTTGGG (site ACTTAGACTCC) | 0.0189
ACATATCCATGGACCGGTTTTCCCGGTAATCCGTATTTGAC (site ACAAATCCTGT) | 0
ACATATCCATGGACCGGTTTTCCCGGTAATCCGTATTTGAC (site ACACATCCTGT) | 0.817
ACATATCCATGGACCGGTTTTCCCGGTAATCCGTATTTGAC (site ACAGATCCTGT) | 0
ACATATCCATGGACCGGTTTTCCCGGTAATCCGTATTTGAC (site ACATATCCTGT) | 1.43
ACATCATCATGGACCGGTTTTCCCGGTAATCCGTATTTGCT (site ACATCATCTAG) | 1.39
ACATCATCATGGACCGGTTTTCCCGGTAATCCGTATTTGCT (site CGATCATCTAG) | 1.05
ACATCTGCATGGACCGGTTTTCCCGGTAATCCGTATTTGGT (site ACATCTGCTAC) | 2.1
ACATCTGCATGGACCGGTTTTCCCGGTAATCCGTATTTGTG (site ACATCTACTCA) | 0.401
ACATCTGCATGGACCGGTTTTCCCGGTAATCCGTATTTGTG (site ACATCTCCTCA) | 0.0207
